Data on five molecules can be found in ChEMBL document CHEMBL2074471, “Electrogenic properties and substrate specificity of the polyspecific rat cation transporter rOCT1” (J Biol Chem, 1996).

As a reminder, the Km is the concentration of substrate that gives half-maximal velocity.

For data set [1], the target named is T1, Solute carrier family 22 member 1 (Rattus norvegicus, UniProt Q63089).
T1 sequence (Q63089 whole entry): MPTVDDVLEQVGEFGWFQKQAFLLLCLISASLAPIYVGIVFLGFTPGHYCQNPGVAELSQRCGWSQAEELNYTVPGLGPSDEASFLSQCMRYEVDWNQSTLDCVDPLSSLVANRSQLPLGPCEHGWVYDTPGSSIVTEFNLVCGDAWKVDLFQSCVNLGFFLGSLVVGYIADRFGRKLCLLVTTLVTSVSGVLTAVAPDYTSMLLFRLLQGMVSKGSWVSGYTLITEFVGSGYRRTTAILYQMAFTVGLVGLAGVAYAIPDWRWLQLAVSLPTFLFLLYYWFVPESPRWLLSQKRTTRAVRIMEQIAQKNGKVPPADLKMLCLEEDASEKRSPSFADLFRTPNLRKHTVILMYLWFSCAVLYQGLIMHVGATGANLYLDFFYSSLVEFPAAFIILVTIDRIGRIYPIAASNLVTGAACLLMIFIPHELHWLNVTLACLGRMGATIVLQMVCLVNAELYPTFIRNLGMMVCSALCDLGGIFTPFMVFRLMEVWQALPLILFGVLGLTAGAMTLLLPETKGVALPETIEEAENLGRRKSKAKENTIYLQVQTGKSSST
Description: TP_TRANSPORTER: uptake (electrogenesis) in Xenopus laevis oocytes. Type of data set: functional, cell-based. The note with it: oocyte.

Substrate in data set [2]: CNC(=O)c1cccnc1
Kind of data set: (§1) TP_TRANSPORTER: uptake in Xenopus laevis oocytes. Type of data set: functional, cell-based, Oocyte.

Substrate in data set [3]: C[n+]1ccc(-c2ccccc2)cc1
The data set is described as §1. It counts as functional, cell-based, Oocyte.

Substrate in data set [4]: CC[N+](CC)(CC)CC
Kind of data set: cells, lysate or membranes named.

With `CC(=O)O[C@H]1C[C@@H]2CC[C@@H]3[C@H](CC[C@@]4(C)[C@H]3C[C@H]([N+]3(C)CCCCC3)[C@@H]4OC(C)=O)[C@@]2(C)C[C@@H]1[N+]1(C)CCCCC1` [PANCURONIUM], the Activity result in data set [1] is “substrate [+]”. Still for that read-out and setting: with `NCCCNCCCCNCCCN` [SPERMINE] the entry was “substrate [+]”; with `NCCCCNCCCN` [SPERMIDINE], “substrate [+]”; with `CC[n+]1c(CC2C=C(C)N=C(c3ccccc3)N2C)ccc2ccccc21.[Cl-]` (configuration not stated) [Cyanine-863], “substrate [+]”.

B1: Solute carrier family 22 member 1 (Rattus norvegicus) (protein)
chain: MPTVDDVLEQVGEFGWFQKQAFLLLCLISASLAPIYVGIVFLGFTPGHYCQNPGVAELSQRCGWSQAEELNYTVPGLGPSDEASFLSQCMRYEVDWNQSTLDCVDPLSSLVANRSQLPLGPCEHGWVYDTPGSSIVTEFNLVCGDAWKVDLFQSCVNLGFFLGSLVVGYIADRFGRKLCLLVTTLVTSVSGVLTAVAPDYTSMLLFRLLQGMVSKGSWVSGYTLITEFVGSGYRRTTAILYQMAFTVGLVGLAGVAYAIPDWRWLQLAVSLPTFLFLLYYWFVPESPRWLLSQKRTTRAVRIMEQIAQKNGKVPPADLKMLCLEEDASEKRSPSFADLFRTPNLRKHTVILMYLWFSCAVLYQGLIMHVGATGANLYLDFFYSSLVEFPAAFIILVTIDRIGRIYPIAASNLVTGAACLLMIFIPHELHWLNVTLACLGRMGATIVLQMVCLVNAELYPTFIRNLGMMVCSALCDLGGIFTPFMVFRLMEVWQALPLILFGVLGLTAGAMTLLLPETKGVALPETIEEAENLGRRKSKAKENTIYLQVQTGKSSST
Turning to B1, the Km in data set [2] is 340 µM; in data set [3], 9.6 µM; in data set [4], 35 µM.
